These results are taken from patent US20240093150A1, “IMPROVED T-CELLS FOR CANCER THERAPY USING AMINO ACID STARVATION PATHWAYS” (UNIVERSITY HEALTH NETWORK, priority 2021, published 2024).

One assay deals with P14 CD8+ T cells. Nature of the assay: Flow cytometry of activated mouse CD8+ T cells treated with halofuginone (cytokines, surface markers, phosphoflow, autophagosome staining). The settings on record: for IFN-γ in halo-treated cells: inhibitor concurrent with Halofuginone (3-MA 2.5 mM; Oligomycin 1 uM). In kind it is cell-based. For orientation: Flow cytometry measures light scatter and fluorescence of single cells or particles in a stream.

The test system of assay [1] is CD8+ T cells. Put plainly: Seahorse and ATP quantification in halo-treated mouse CD8+ T cells. In kind it is cell-based. The settings on record: for enhanced OXPHOS (basal OCR) in halo-treated cells: inhibitor added concurrent with Halofuginone (3-MA 2.5 mM).
Assay [2] concerns CD8+ T cells. Nature of the assay: Ribo-Seq / RNA-seq gene expression profiling of halo-treated CD8+ T cells. In kind it is cell-based, mouse. The note with it: halo vs vehicle.
The test system of assay [3] is CD8+ T cells. Put plainly: Targeted mass spectrometry metabolic profile of halo-treated cells. In kind it is cell-based, mouse. The note with it: halo vs vehicle. As for the experimental part:
Seahorse was performed as previously described (Saibil et al., 2019). ATP quantification was performed using a commercial kit (Sigma) according to the recommended protocol. For metabolic profiling of Halo treated cells, mass spectrometry was performed on metabolites extracted from cell pellets. Briefly, cell pellets were washed and snap frozen in 1 ml 80% methanol. Samples were probe sonicated for 5 seconds, power level 3 (Fisher Scientific Model 100 Sonicator). 5 ul of internal standard (Isotopically labeled amino acids, 1.25 mM, PN MSK-A2-1.2, Cambridge Isotope Laboratories) was added to a 100 ul aliquot of supernatant. 10 ul of this solution was diluted in 990 ul of buffer containing 95% acetonitrile, 5% 20 mM ammonium carbonate (pH 9.8). Quality control samples (QCs) were prepared by pooling 100 μl of each sample. All samples including QCs, where then analyzed by selected reaction monitoring (SRM) using a Waters XBridge Amide 1.0×50 mm, 3.5 μm column and a 10 mM ammonium carbonate (pH 10) acetonitrile buffer system coupled with a Sciex Qtrap 5500 triple quadrupole linear ion trap tandem mass spectrometer. The data acquisition included 317 transitions. Data were captured using Analyst, version 1.6.2 software (Sciex); peak integration was performed using Skyline, version 4.1 (Pino et al., 2020). […]

In the next assay the test system is human CD8+ T cells. Nature of the assay: Human CD8+ T cells activated in the presence of halofuginone (Seahorse, flow cytometry, DMF5 TCR transduction). In kind it is cell-based. As for the experimental part: Peripheral blood mononuclear cells were obtained from healthy donors following institutional review board approval. Written informed consent was obtained from all donors who provided the samples. PBMCs were magnetically sorted for naïve CD8+ T cells (Miltenyi Biotec) and activated with CD3/CD28 Dynabeads (Invitrogen) at 1:1 ratio in complete IMDM for 5 days in the presence of Halo (12.5 ng/mL) or vehicle control. For DMF5 TCR transduction, purified naïve CD8+ T cells were stimulated with CD3/CD28 Dynabeads at 1:1 ratio in complete IMDM media and 100 IU/ml recombinant human IL-2. Two days after stimulation, T cells were infection with PG13-derived virus encoding DMF5 TCR and a truncated NGFR tag, separated by 2A sequences. Halofuginone (12.5 ng/mL) or vehicle control was added on days 0 and 2. Phenotype was analyzed on day 5.

Setting [4] is: Halo 50 ng/mL last 48 hours, vs vehicle.

As to `Cn1cnc(N)c2ncnc1-2` [3MA], in the assay with P14 CD8+ T cells (cultured in the presence of 3MA 2.5 mM), the “4-1BB or granzyme B expression in halo-treated cells” value was “no difference”. For the same compound, the “IFN-γ in halo-treated cells” value with P14 CD8+ T cells is “marked reduction”. In addition, the “OXPHOS in vehicle-treated cells” value in the assay with CD8+ T cells [1] (3-MA 2.5 mM) is reported as “no effect”. In addition, the “enhanced OXPHOS (basal OCR) in halo-treated cells” value in the assay with CD8+ T cells [1] is on record as “entirely abrogated”.

Take `NC1(C(=O)O)CC2CCC1C2` (stereo not shown) [BCH]: the “halo-induced p-mTOR increase in the presence of inhibitor” value in the assay on P14 CD8+ T cells (halo-treated cells plus BCH) was “reversed”. In the assay with P14 CD8+ T cells (inhibitor added concurrent with Halofuginone (Rapamycin 20 nM)), the “expression of 4-1BB, Granzyme B and IFN-γ in halo-treated cells” value is reported as “inhibition of expression”. The “enhanced OXPHOS (basal OCR) in halo-treated cells” value with CD8+ T cells [1] is “did not affect”.

For the compound `CCOC(=O)[C@@]1(CCCCCCOc2ccc(Cl)cc2)CO1` [etomoxir], the “effect on OCR in halo-treated cells” value in the assay with CD8+ T cells [1] (Etomoxir 4 μm injected in Seahorse) is “minimal effects”.

`O=C(CC1NCCCC1O)Cn1cnc2cc(Br)c(Cl)cc2c1=O` (stereo not shown) [halofuginone]: in the assay with P14 CD8+ T cells (Halo 50 ng/mL for the last 48 hours of IL-2 expansion, vs vehicle), the IFN-γ production entry was “increased IFN-γ production”. For the same compound, in the assay with P14 CD8+ T cells (setting [4]), the CD98 expression result is “enhanced”; the “TNF-α and IL-2 production” value is listed as “to a lesser extent, increased”; the “granzyme B expression” value was “significant increase”; the “polyfunctionality (co-expression of IFN-γ, TNF-α, IL-2)” value was “increased polyfunctionality”. For the same compound, in the assay with P14 CD8+ T cells (flow cytometry, halo vs vehicle), the “surface expression of 4-1BB” value was “increased percentage of cells expressing 4-1BB as well as a higher level of expression on a per cell basis”. In the assay on P14 CD8+ T cells (halo-treated cells vs vehicle), the “autophagy (fluorescent staining of autophagosomes)” value was “increased evidence of autophagy” and the p-mTOR entry is recorded as “increase in p-mTOR”. The “surface markers of Tcm lineage (CD62L, CD44, CD127, CD25)” value in the assay with P14 CD8+ T cells (halo-treated cells, same as vehicle treated cells) was “CD62^Lo, CD44^Hi CD127^Lo and CD25^Hi”. In addition, the “CD69+ CD103+ double-positive cells” value in the assay with P14 CD8+ T cells (halo-treated, unlike vehicle-treated control cells) was “induced a population of CD69^+ CD103^+ double-positive cells”. For the same compound, in the assay with CD8+ T cells [1] (setting [4]), the ATP levels result is given as “increase”, the “OCR (oxygen consumption rate)” value is reported as “increase” and the “OCR:ECAR ratio” value is listed as “increase”. In the assay on CD8+ T cells [2], the “4-1BB expression (RNA)” value is given as “up-regulated”; the “Trm-associated genes, transcriptionally or translationally” value is on record as “very few of the Trm-associated genes were up-regulated”; the “electron transport chain (ETC) complex genes” value was “increased both transcription and translation of all five complexes”; the “genes associated with glycolysis, TCA cycle, fatty acid oxidation” value is “Increased enrichment of genes associated with glycolysis and the TCA cycle, but not fatty acid oxidation”. The “ribosomal-associated Bhlhe40 transcripts” value with CD8+ T cells [2] is “marked increase”. Besides, the CD69 gene expression result with CD8+ T cells [2] (among Trm-associated genes) is recorded as “one of the most upregulated genes”. In the assay with CD8+ T cells [2] (panel of markers other than 4-1BB), the “expression of costimulatory and co-inhibitory molecules (transcriptional, translational and protein level)” value was “not enhanced”. Moreover, the “levels of amino acids” value in the assay on CD8+ T cells [3] is given as “primarily up-regulated”. For the same compound, the “expression of 4-1BB, Granzyme B and CD98 in TCR+ T cells” value in the assay with human CD8+ T cells (DMF5 TCR transduced, Halofuginone 12.5 ng/mL, day 5, majority of patients) is listed as “increased expression”. In the assay with human CD8+ T cells (Halo 12.5 ng/mL, 5 days), the OXPHOS result is given as “enhanced”; the “expression of 4-1BB and CD98” value is reported as “increasing”. Besides, in the assay with human CD8+ T cells (Halofuginone 12.5 ng/mL added on days 0 and 2), the “transduction efficiency of the DMF5 TCR” value was “did not inhibit”.

On to `CC[C@H]1/C=C/C=C/C[C@@H](C)[C@H](O)[C@@](C)(O)C(=O)[C@@H](C)[C@H](O)[C@@H](C)C(=O)[C@@H](C)[C@H](O)[C@@H](C)/C=C/C(=O)O[C@@H]2[C@H](C)[C@H](CC1)O[C@]1(CC[C@H](C)[C@H](C[C@@H](C)O)O1)[C@H]2C` [oligomycin], for which the “IFN-γ in halo-treated cells” value in the assay with P14 CD8+ T cells is reported as “marked reduction”.
